Source: PMC10660337, “Mutate and Conjugate: A Method to Enable Rapid In-Cell Target Validation” (ACS Chemical Biology, 2023)

Biological target: T1, BRD4(1)^WT (Homo sapiens, UniProt O60885)
T1 construct: Characterization of His6-BRD4(1)WT; made in house; host or cells: E. coli BL21 (DE3)
Assay: Fluorescent labeling of purified protein (CuAAC with TAMRA-PEG3-azide, in-gel fluorescence)
Format: binding
Conditions: 50 μM probe, 10 μM protein, 4 h, 37 °C, then CuAAC 1 h
Procedure: When 28, 29, 30, and 42 were incubated with either purified BRD4(1)^L94C or BRD4(1)^WT and subjected to a copper(I)-catalyzed alkyne–azide click reaction (CuAAC) reaction with the fluorescent TAMRA-PEG3-azide dye, all clickable probes labeled the mutant protein and could be visualized using fluorescence imaging of a gel (Figure 6).
Figure 6 Clickable probes 28, 29, 30, and 42 covalently label BRD4(1)^L94C and undergo a subsequent CuAAC reaction with TAMRA-PEG3 azide to fluorescently label the protein, as shown by in-gel fluorescence imaging. Compounds 28, 29, 30, 41, and 42 (50 μM) were incubated with purified BRD4(1)^L94C or BRD4(1)^WT (10 μM) for 4 h at 37 °C, followed by CuAAC reaction with TAMRA-PEG3 azide for 1 h and separation of components by SDS-PAGE. For all compounds other than 30, only labeling of BRD4(1)^L94C was observed.
50 mM DMSO stock solutions of the compounds were serially diluted, and dispensed into wells (5 μL).
The protein-peptide mixes (7 μL) for each combination were prepared following the specified final assay concentration (Table S19), and dispensed into wells. […]
Assays were performed in 1.5 mL Eppendorf tubes at room temperature, in the dark, and gently shaken, unless otherwise stated. […] Data was analysed and processed using MassLynx. […]
Gels were imaged for fluorescence using Bio-rad molecular imager and then stained for 15 min with […]

C#CCOc1ccc(-c2c(C)noc2NC(=O)C=C)cc1 [Compound 30]
Labeling of purified BRD4(1)^WT, in-gel fluorescence: low level
